Source: ChEMBL document CHEMBL5046295 (J Med Chem, 2022)
Calls of active or inactive are those of the source. The calls are words filed in the database; no cut-off is given here.

How the values were obtained:
[1] = system: Mus musculus; assay: Antinociceptive activity against Swiss Webster mouse model assessed as increase in tail withdrawal latency from warm water by measuring maximum possible effect at 10 mg/kg, sc measured after 20 min by warm water tail immersion assay; type: functional, organism-based
[2] = system: Mus musculus; assay: Antinociceptive activity against Swiss Webster mouse model assessed as increase in tail withdrawal latency from warm water at 10 mg/kg, sc incubated for 5 mins followed by morphine addition and measured after 20 mins by warm water tail immersion assay; type: functional, organism-based
[3] = target: T1, Mu-type opioid receptor (Mus musculus, UniProt P42866); assay: Partial agonist activity at mouse mu opioid receptor expressed in CHO cell membranes incubated for 1.5 hrs by [35S]GTPgammaS binding based liquid scintillation counting method
[4] = target: T2, Delta-type opioid receptor (Homo sapiens, UniProt P41143)
Description: Displacement of [3H]-diprenorphine from human delta opioid receptor expressed in CHO cell membranes assessed as inhibition constant incubated for 1.5 hrs by competitive binding assay

[5] = target: T1, Mu-type opioid receptor
[6] = target: T3, Kappa-type opioid receptor (Mus musculus, UniProt P33534)
Description: Displacement of [3H]-diprenorphine from mouse kappa opioid receptor expressed in CHO cell membranes assessed as inhibition constant incubated for 1.5 hrs by competitive binding assay

[7] = system: Mus musculus; assay: Anti-addiction activity in morphine pelleted Swiss Webster mouse assessed as escape jumps at 5 mg/kg, sc measured after 72 hrs; type: functional, organism-based
[8] = system: Mus musculus; assay: Anti-addiction activity in morphine pelleted Swiss Webster mouse assessed as paw tremors at 5 mg/kg, sc measured after 72 hrs; type: functional, organism-based
[9] = system: Mus musculus; assay: Anti-addiction activity in morphine pelleted Swiss Webster mouse assessed as wet dog shakes at 5 mg/kg, sc measured after 72 hrs; type: functional, organism-based
[10] = target: T2, Delta-type opioid receptor; assay: biochemical
Description: Antagonist activity against human delta opioid receptor expressed in CHO cell membrane assessed as reduction in SNC80 induced [35S]GTPgammaS binding incubated for 1.5 hrs by liquid scintillation counting method

[11] = target: T3, Kappa-type opioid receptor; assay: biochemical
Description: Antagonist activity at mouse kappa opioid receptor expressed in CHO cell membranes assessed as reduction in U50,488H induced [35S]GTPgammaS binding incubated for 1.5 hrs by liquid scintillation counting method

T3 sequence (P33534 whole entry): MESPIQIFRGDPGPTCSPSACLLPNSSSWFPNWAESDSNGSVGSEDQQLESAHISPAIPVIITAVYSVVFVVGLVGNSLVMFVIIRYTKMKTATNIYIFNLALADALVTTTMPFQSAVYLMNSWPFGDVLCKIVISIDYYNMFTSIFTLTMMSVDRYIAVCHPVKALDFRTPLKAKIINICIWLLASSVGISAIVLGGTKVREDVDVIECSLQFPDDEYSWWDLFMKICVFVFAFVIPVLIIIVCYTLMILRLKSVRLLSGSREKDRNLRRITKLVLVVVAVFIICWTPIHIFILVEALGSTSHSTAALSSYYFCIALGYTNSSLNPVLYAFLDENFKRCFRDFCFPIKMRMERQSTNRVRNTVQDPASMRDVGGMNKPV
T2 sequence (P41143 whole entry): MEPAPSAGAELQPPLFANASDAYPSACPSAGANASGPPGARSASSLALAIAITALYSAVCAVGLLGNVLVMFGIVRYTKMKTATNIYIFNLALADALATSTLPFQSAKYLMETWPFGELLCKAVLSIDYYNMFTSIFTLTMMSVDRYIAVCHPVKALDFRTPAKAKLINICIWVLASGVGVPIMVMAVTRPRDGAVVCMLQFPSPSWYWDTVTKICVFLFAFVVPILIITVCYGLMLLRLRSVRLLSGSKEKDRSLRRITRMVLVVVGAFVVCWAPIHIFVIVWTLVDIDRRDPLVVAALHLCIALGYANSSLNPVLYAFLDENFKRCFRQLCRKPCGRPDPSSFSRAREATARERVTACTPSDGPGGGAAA
T1 sequence (P42866 whole entry): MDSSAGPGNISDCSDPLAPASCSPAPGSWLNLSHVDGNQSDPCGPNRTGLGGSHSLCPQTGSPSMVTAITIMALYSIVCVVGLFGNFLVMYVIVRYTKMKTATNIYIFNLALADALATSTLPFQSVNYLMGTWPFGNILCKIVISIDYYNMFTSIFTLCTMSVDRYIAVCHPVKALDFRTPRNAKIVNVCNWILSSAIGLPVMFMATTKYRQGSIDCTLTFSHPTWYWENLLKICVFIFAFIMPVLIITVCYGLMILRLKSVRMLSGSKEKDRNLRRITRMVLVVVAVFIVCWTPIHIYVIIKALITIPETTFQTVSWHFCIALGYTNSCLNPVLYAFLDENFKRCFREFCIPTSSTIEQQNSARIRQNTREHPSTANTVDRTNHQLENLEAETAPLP

Structure (SMILES)	Activity [1]	Activity [2]	EC50 [3]	Ki [4]	Ki [5]	Ki [6]	Activity [7]	Activity [8]	Activity [9]	EC50 [10]	EC50 [11]
O=C(N[C@H]1CC[C@@]2(O)[C@H]3Cc4ccc(O)c5c4[C@@]2(CCN3CC2CC2)[C@H]1O5)c1ccc[nH]1	inactive	Active	–	–	–	–	–	–	–	–	–
O=C(CCc1ccc[nH]1)N[C@@H]1CC[C@@]2(O)[C@H]3Cc4ccc(O)c5c4[C@@]2(CCN3CC2CC2)[C@H]1O5	Active	–	1.22 nM	36.7 nM	0.52 nM	1.25 nM	–	–	–	–	–
O=C(CCc1ccc[nH]1)N[C@H]1CC[C@@]2(O)[C@H]3Cc4ccc(O)c5c4[C@@]2(CCN3CC2CC2)[C@H]1O5	inactive	inactive	3.79 nM	7.58 nM	0.58 nM	0.54 nM	–	–	–	–	–
O=C(N[C@@H]1CC[C@@]2(O)[C@H]3Cc4ccc(O)c5c4[C@@]2(CCN3CC2CC2)[C@H]1O5)c1cccs1	inactive	Active	–	–	–	–	–	–	–	–	–
O=C(N[C@H]1CC[C@@]2(O)[C@H]3Cc4ccc(O)c5c4[C@@]2(CCN3CC2CC2)[C@H]1O5)c1cccs1	inactive	Active	–	–	–	–	Active	Active	Active	–	–
O=C(CCc1ccsc1)N[C@H]1CC[C@@]2(O)[C@H]3Cc4ccc(O)c5c4[C@@]2(CCN3CC2CC2)[C@H]1O5	inactive	inactive	–	–	–	–	–	–	–	–	–
O=C(CCc1ccoc1)N[C@H]1CC[C@@]2(O)[C@H]3Cc4ccc(O)c5c4[C@@]2(CCN3CC2CC2)[C@H]1O5	inactive	inactive	2.31 nM	–	–	–	–	–	–	–	–
O=C(N[C@H]1CC[C@@]2(O)[C@H]3Cc4ccc(O)c5c4[C@@]2(CCN3CC2CC2)[C@H]1O5)c1ccsc1	inactive	Active	–	–	–	–	Active	–	Active	–	–
O=C(CCc1cccs1)N[C@H]1CC[C@@]2(O)[C@H]3Cc4ccc(O)c5c4[C@@]2(CCN3CC2CC2)[C@H]1O5	inactive	inactive	3.06 nM	2.25 nM	0.48 nM	1.76 nM	–	–	–	–	–
O=C(N[C@@H]1CC[C@@]2(O)[C@H]3Cc4ccc(O)c5c4[C@@]2(CCN3CC2CC2)[C@H]1O5)c1cc[nH]c1	Active	–	2.03 nM	107 nM	0.36 nM	4.51 nM	–	–	–	–	–
O=C(Cc1cc[nH]c1)N[C@@H]1CC[C@@]2(O)[C@H]3Cc4ccc(O)c5c4[C@@]2(CCN3CC2CC2)[C@H]1O5	inactive	inactive	1.18 nM	37.8 nM	0.28 nM	4.19 nM	–	–	–	–	–
O=C(Cc1ccc[nH]1)N[C@H]1CC[C@@]2(O)[C@H]3Cc4ccc(O)c5c4[C@@]2(CCN3CC2CC2)[C@H]1O5	inactive	inactive	4.18 nM	3.85 nM	0.46 nM	2.88 nM	–	–	–	–	–
O=C(N[C@H]1CC[C@@]2(O)[C@H]3Cc4ccc(O)c5c4[C@@]2(CCN3CC2CC2)[C@H]1O5)c1ccoc1	Active	–	7.63 nM	28.6 nM	0.5 nM	2.14 nM	–	–	–	–	–
O=C(Cc1ccoc1)N[C@H]1CC[C@@]2(O)[C@H]3Cc4ccc(O)c5c4[C@@]2(CCN3CC2CC2)[C@H]1O5	inactive	inactive	8.32 nM	3.74 nM	0.42 nM	6.45 nM	–	–	–	–	–
O=C(CCc1ccoc1)N[C@@H]1CC[C@@]2(O)[C@H]3Cc4ccc(O)c5c4[C@@]2(CCN3CC2CC2)[C@H]1O5	inactive	inactive	0.63 nM	–	–	–	–	–	–	–	–
O=C(N[C@@H]1CC[C@@]2(O)[C@H]3Cc4ccc(O)c5c4[C@@]2(CCN3CC2CC2)[C@H]1O5)c1ccoc1	Active	–	35 nM	1980 nM	8.47 nM	29.4 nM	–	–	–	–	–
O=C(N[C@H]1CC[C@@]2(O)[C@H]3Cc4ccc(O)c5c4[C@@]2(CCN3CC2CC2)[C@H]1O5)c1cc[nH]c1	inactive	inactive	2.21 nM	40.4 nM	1.31 nM	2.78 nM	–	–	–	–	–
O=C(N[C@@H]1CC[C@@]2(O)[C@H]3Cc4ccc(O)c5c4[C@@]2(CCN3CC2CC2)[C@H]1O5)c1ccco1	inactive	Active	0.98 nM	84.7 nM	0.3 nM	1.29 nM	–	–	–	35.5 nM	6.3 nM
